The results in this text go back to patent publication US20240376097A1, “BCL-2 Inhibitor” (BeiGene Ltd., priority 2020, published 2024).

Assay [1] has as its system RS4;11 (BCL-2 dependent acute lymphoblastic leukemia cell line). In words: RS4;11 Cell Proliferation Assay. Type of assay: cell-based. The conditions noted are these: Homo sapiens, RS4-11, RS4;11 cells, read-out: Cellular proliferation assay (IC50, nM) RS4. An outline of the steps:
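RS4;11 cells, 50,000 per well in RPMI-1640 with 10% FBS, treated 48 h at 37 °C with a 10-point dilution series topping at 1 μM. Viability read by CellTiter-Glo ATP luminescence; mean IC50 reported.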

Assay [2] concerns the target Recombinant human Bcl-2 protein (Homo sapiens (Human), UniProt P10415). In words: Bcl-2 TR-FRET Assay. In kind it is binding. The conditions noted are these: Bcl-2 wild type, TR-FRET; read-out: Biochemical assay (IC50, nM) Bcl-2 WT. An outline of the steps: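 0.05 nM Bcl-2 pre-incubated 0.5 h at room temperature with 10-point compound dilutions (top final 1, 0.1, 0.02 or 0.01 uM) in 20 mM potassium phosphate pH 7.5, 50 mM NaCl, 1 mM EDTA, 0.05% Tween-20, 0.01% BSA; FITC-Bak peptide (0.5 nM) and anti-6His Tb cryptate added, 1 h. IC50 from four-parameter logistic fit.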
(In general: Time-resolved FRET reads energy transfer from a long-lived donor to a nearby acceptor.)

The subject of assay [3] is BCL-2 G101V knock-in cell line H96 (derive from RS4;11). Description: Bcl 2-G101V Knock-In RS4;11 Cell Proliferation Assay. In kind it is cell-based. The conditions noted are these: Homo sapiens, RS4;11 Bcl-2 G101V knock-in clone H96, 48 hrs, CellTiter-GLO, read-out: Cellular proliferation assay (IC50, nM) RS4. The method in brief:
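H96, a CRISPR-generated RS4;11 clone carrying BCL2-G101V knock-in (WES/RNA-seq validated), seeded 50,000 per well and exposed 48 h at 37 °C to 10-point dilutions topping at 1 or 10 μM. Viability by CellTiter-Glo luminescence; mean IC50.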
On the technique in general: ATP-based viability assays read luminescence as a measure of living cells.

The subject of assay [4] is recombinant human Bcl-2-G101V protein. In words: Bcl-2-G101V TR-FRET Assay. In kind it is binding. The following applies: ratio of biochemical IC50 Bcl-2 G101V / Bcl-2 WT. The method in brief: (§1)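 IC50 values derive from four-parameter logistic fitting of percent inhibition data. That inhibition of ligand binding to Bcl-2-G101V is computed from the 490 nm/520 nm TR-FRET ratio under 337 nm excitation, over a rising compound concentration series.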

Assay [5] deals with recombinant human Bcl-2-G101V protein (Homo sapiens (Human), UniProt P10415, G101V). Description: Bcl-2-G101V TR-FRET Assay. The following applies: Bcl-2 G101V mutant, TR-FRET; read-out: Biochemical assay (IC50, nM) Bcl-2 G101V. Type of assay: binding. An outline of the steps: as §1

As for `CC(C)c1ccccc1[C@H]1CN(Cc2cccc3c2OCCO3)CCN1C1CC2(C1)CN(c1ccc(C(=O)NS(=O)(=O)c3ccc(NC[C@H]4CC[C@](C)(O)CC4)c([N+](=O)[O-])c3)c(Oc3cnc4[nH]ccc4c3)c1)C2` [Example 149b, 2-((1H-pyrrolo[2,3-b]pyridin-5-yl)oxy)-4-(6-((S)-4-((2,3-dihydrobenzo[b][1,4]dioxin-5-yl)methyl)-2-(2-isopropylphenyl)piperazin-1-yl)-2-azaspiro[3.3]heptan-2-yl)-N-((4-((((1r,4r)-4-hydroxy-4-methylcyclohexyl)methyl)amino)-3-nitrophenyl)sulfonyl)benzamide], the IC50 worked out at 5.8 nM in assay [1], 0.7 nM in assay [2], 20.4 nM in assay [3] and 8.4 nM in assay [5]. The “Ratio of Bcl-2 G101V/WT” value in assay [4] is reported as 12.
On to `COc1ccc(CN(C)C2CCN(C3CC4(CCN(c5ccc(C(=O)NS(=O)(=O)c6ccc(NC[C@H]7CC[C@](C)(O)CC7)c([N+](=O)[O-])c6)c(Oc6cnc7[nH]ccc7c6)c5)CC4)C3)C(c3ccccc3C3CC3)C2)cc1` (some centres unmarked) [Example 105, 2-((1H-pyrrolo[2,3-b]pyridin-5-yl)oxy)-4-(2-(2-(2-cyclopropylphenyl)-4-((4-methoxybenzyl)(methyl)amino)piperidin-1-yl)-7-azaspiro[3.5]nonan-7-yl)-N-((4-((((1r,4r)-4-hydroxy-4-methylcyclohexyl)methyl)amino)-3-nitrophenyl)sulfonyl)benzamide], for which the IC50 was 2.12 nM in assay [1], 0.1 nM in assay [2], 16.6 nM in assay [3] and 0.25 nM in assay [5]. Besides, the “Ratio of Bcl-2 G101V/WT” value in assay [4] was found to be 2.5.
The matching figures for `CC(C)c1ccccc1C1CN(Cc2ccc(OC3CC3)cc2)CCN1C1CC2(CCN(c3ccc(C(=O)NS(=O)(=O)c4ccc(NC[C@H]5CC[C@](C)(O)CC5)c([N+](=O)[O-])c4)c(Oc4cnc5[nH]ccc5c4)c3)CC2)C1` (some centres unmarked) [Example 172, 2-((1H-pyrrolo[2,3-b]pyridin-5-yl)oxy)-4-(2-(4-(4-cyclopropoxybenzyl)-2-(2-isopropylphenyl)piperazin-1-yl)-7-azaspiro[3.5]nonan-7-yl)-N-((4-((((1r,4r)-4-hydroxy-4-methylcyclohexyl)methyl)amino)-3-nitrophenyl)sulfonyl)benzamide]: 0.43 nM, 0.35 nM, 1.64 nM, 1.9 nM and 5.5.
The matching figures for `CC(C)c1ccccc1C1CN(CC2CCOc3ccccc32)CCN1C1CC2(CCN(c3ccc(C(=O)NS(=O)(=O)c4ccc(NC[C@H]5CC[C@](C)(O)CC5)c([N+](=O)[O-])c4)c(Oc4cnc5[nH]ccc5c4)c3)CC2)C1` (some centres unmarked) [Example 57, 2-((1H-pyrrolo[2,3-b]pyridin-5-yl)oxy)-4-(2-(4-(chroman-4-ylmethyl)-2-(2-isopropylphenyl)piperazin-1-yl)-7-azaspiro[3.5]nonan-7-yl)-N-((4-((((1r,4r)-4-hydroxy-4-methylcyclohexyl)methyl)amino)-3-nitrophenyl)sulfonyl)benzamide]: 0.8 nM, 0.44 nM, 8.9 nM, 2.2 nM and 5.0.
The matching figures for `C#Cc1cc(CN2CCN(C3CC4(CCN(c5ccc(C(=O)NS(=O)(=O)c6ccc(NC[C@H]7CC[C@](C)(O)CC7)c([N+](=O)[O-])c6)c(Oc6cnc7[nH]ccc7c6)c5)CC4)C3)C(c3ccccc3C(C)C)C2)ccc1OC` (some centres unmarked) [Example 151, 2-((1H-pyrrolo[2,3-b]pyridin-5-yl)oxy)-4-(2-(4-(3-ethynyl-4-methoxybenzyl)-2-(2-isopropylphenyl)piperazin-1-yl)-7-azaspiro[3.5]nonan-7-yl)-N-((4-((((1r,4r)-4-hydroxy-4-methylcyclohexyl)methyl)amino)-3-nitrophenyl)sulfonyl)benzamide]: 0.53 nM, 0.43 nM, 3.86 nM, 2.1 nM and 4.9.
On to `COc1cc(CN2CCN(C3CC4(CCN(c5ccc(C(=O)NS(=O)(=O)c6ccc(NC[C@H]7CC[C@](C)(O)CC7)c([N+](=O)[O-])c6)c(Oc6cnc7[nH]cc(Cl)c7c6)c5)CC4)C3)[C@H](c3ccccc3C(C)C)C2)ccc1C1CC1` [Example 252, 2-((3-chloro-1H-pyrrolo[2,3-b]pyridin-5-yl)oxy)-4-(2-((R)-4-(4-cyclopropyl-3-methoxybenzyl)-2-(2-isopropylphenyl)piperazin-1-yl)-7-azaspiro[3.5]nonan-7-yl)-N-((4-((((1r,4r)-4-hydroxy-4-methylcyclohexyl)methyl)amino)-3-nitrophenyl)sulfonyl)benzamide], for which the IC50 in assay [1] came out at 0.26 nM; in assay [2], 1.2 nM; in assay [3], 2.6 nM; in assay [5], 3.5 nM. Besides, the “Ratio of Bcl-2 G101V/WT” value in assay [4] stood at 2.8.
The matching figures for `COCCN1CCN(C2CC3(CCN(c4ccc(C(=O)NS(=O)(=O)c5ccc(NC[C@H]6CC[C@](C)(O)CC6)c([N+](=O)[O-])c5)c(Oc5cnc6[nH]ccc6c5)c4)CC3)C2)[C@@H](c2ccccc2C(C)C)C1` (single isomer, unassigned) [Example 13a, 2-((1H-pyrrolo[2,3-b]pyridin-5-yl)oxy)-N-((4-((((1r,4r)-4-hydroxy-4-methylcyclohexyl)methyl)amino)-3-nitrophenyl)sulfonyl)-4-(2-((S or R)-2-(2-isopropylphenyl)-4-(2-methoxyethyl)piperazin-1-yl)-7-azaspiro[3.5]nonan-7-yl)benzamide]: 10.5 nM, 0.038 nM, 87.4 nM, 3.6 nM and 94.7.
Consider `COc1cc(CN2CCN(C3CC4(CCN(c5ccc(C(=O)NS(=O)(=O)c6ccc(NC[C@H]7CC[C@](C)(O)CC7)c([N+](=O)[O-])c6)c(Oc6cnc7[nH]ccc7c6)c5)CC4)C3)C(c3ccccc3C(C)C)C2)ccc1C1CC1` (some centres unmarked) [Example 156, 2-((1H-pyrrolo[2,3-b]pyridin-5-yl)oxy)-4-(2-(4-(4-cyclopropyl-3-methoxybenzyl)-2-(2-isopropylphenyl)piperazin-1-yl)-7-azaspiro[3.5]nonan-7-yl)-N-((4-((((1r,4r)-4-hydroxy-4-methylcyclohexyl)methyl)amino)-3-nitrophenyl)sulfonyl)benzamide], for which the IC50 stood at 0.375 nM in assay [1], 0.73 nM in assay [2], 1.42 nM in assay [3] and 3.6 nM in assay [5]. Moreover, the “Ratio of Bcl-2 G101V/WT” value in assay [4] was found to be 4.9.
The matching figures for `CC(C)c1ccccc1[C@@H]1CN(Cc2ccc3c(c2)OCC3)CCN1C1CC2(CCN(c3ccc(C(=O)NS(=O)(=O)c4ccc(NC[C@H]5CC[C@](C)(O)CC5)c([N+](=O)[O-])c4)c(Oc4cnc5[nH]cc(F)c5c4)c3)CC2)C1` [Example 305, 4-(2-((R)-4-((2,3-dihydrobenzofuran-6-yl)methyl)-2-(2-isopropylphenyl)piperazin-1-yl)-7-azaspiro[3.5]nonan-7-yl)-2-((3-fluoro-1H-pyrrolo[2,3-b]pyridin-5-yl)oxy)-N-((4-((((1r,4r)-4-hydroxy-4-methylcyclohexyl)methyl)amino)-3-nitrophenyl)sulfonyl) benzamide]: 0.32 nM, 0.19 nM, 1.3 nM, 0.6 nM and 3.2.
The matching figures for `COc1cc(CN2CCN(C3CC4(C3)CN(c3ccc(C(=O)NS(=O)(=O)c5ccc(NC[C@H]6CC[C@](C)(O)CC6)c([N+](=O)[O-])c5)c(Oc5cnc6[nH]ccc6c5)c3)C4)[C@H](c3ccccc3C(C)C)C2)ccc1C(F)(F)F` [Example 290, 2-((1H-pyrrolo[2,3-b]pyridin-5-yl)oxy)-N-((4-((((1r,4r)-4-hydroxy-4-methylcyclohexyl)methyl)amino)-3-nitrophenyl)sulfonyl)-4-(6-((R)-2-(2-isopropylphenyl)-4-(3-methoxy-4-(trifluoromethyl)benzyl)piperazin-1-yl)-2-azaspiro [3.3]heptan-2-yl)benzamide]: 0.2 nM, 0.9 nM, 1.5 nM, 2.2 nM and 2.5.
